Measured values taken from US20180353445A1, “METHODS AND COMPOSITIONS RELATING TO PROTEASOME INHIBITOR RESISTANCE” (Whitehead Institute for Biomedical Research, priority 2017, published 2018).
Entries after “also recorded” stand apart in the source; their conditions may differ.

Experiments:
HepG2 cells = test: RNA-seq gene expression profiling, PSMD2 knockdown and control cells; type: cell-based, human; conditions: control cells
Method: FIGS. 3A-3E: Inhibition of bortezomib-mediated transcriptional responses in PSMD2 knockdown cells. RNA-seq gene expression profiling was conducted on cells that harbor two different shRNAs targeting PSMD2 (PSMD2-1, PSMD2-2) and on control cells (shLacZ). The effects of reducing PSMD2 levels on gene expression were highly correlated in both basal conditions (Pearson's r=0.99) and following bortezomib treatment (Pearson's r=0.94). […] Enrichment was calculated for the indicated gene sets and is presented as a normalized enrichment score (NES). […]
Gene expression analysis—RNA was extracted from triplicate samples and RNA libraries were prepared for sequencing by NEBNext Ultra RNA Library Prep Kit for Illumina (New England BioLabs, Ipswich, Mass.), including the removal of large and small RNA, synthesis of cDNA, and construction of cDNA libraries. […] Libraries were sequenced using Illumina HiSeq 2500, with paired-end 100 bp reads, Paired-end reads were aligned to UCSC human transcriptome 19 (hg19) using TopHat (Bowtie v2.0.9). Alignment quality and read distribute was assessed via SAMtools (v0.1.19) (Li et al., 2009). […] RNA sequencing data have been deposited in the NCBI Sequence Read Archive under accession number: PRJNA281613, […]

FDX1 = target: T1, FDX1 (Homo sapiens, UniProt P10109); test: In vitro Fe-S cluster assembly with reduced FDX1 (absorbance at 456 nm); type: biochemical
T1 construct: made in house
T1 sequence (P10109 62-184): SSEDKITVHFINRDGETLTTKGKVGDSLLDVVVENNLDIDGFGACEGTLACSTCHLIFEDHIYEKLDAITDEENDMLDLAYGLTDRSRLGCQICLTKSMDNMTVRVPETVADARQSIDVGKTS
Description: FIGS. 47A-47C: Inhibition of Fe—S formation by elesclomol and variants (in-vitro). […] Note: “x(number) concentration” means that the indicated compound was present at 5 times the concentration of the enzyme.
(FIG. 53A) provides a schematic describing mitochondrial Fe—S cluster biosynthesis. The mitochondrial ISC (iron-sulfur cluster) core complex contains the scaffold protein ISCU and cysteine desulfurase (ACP-ISD11-NFS1)2. The latter catalyzes the conversion of cysteine to alanine and generates S° for iron sulfur cluster assembly. S° is reduced by FDX1. A [2Fe-2S] cluster is subsequently formed on ISCU. […] In vitro Fe—S cluster assembly was carried out with reduced. FDX1 as the reducing agent in the presence or absence of either 5× (green) or 10× (yellow) elesclomol (both relative to FDX1). Fe—S cluster formation was monitored by following the increase of absorbance at 456 nm. […] The red triangle denotes an NMR peak that became severely broadened. […] The [2Fe-2S] cluster in FDX1 is indicated by spheres.
The in vitro Fe—S cluster assembly was carried out with reduced FDX1 as the reducing agent and detected by following the increase of absorbance at 456 tun following the addition of either of 5× (green) or 10× (yellow, both relative to FDX1) compound-1. […] Fe—S formation was monitored by following the increase of absorbance at 456 nm. […] Cysteine desulfurase activity assay carried out with the indicated concentrations of elesclomol.

MCF7 and HEK293 cells = test: Cell viability with glucose or galactose as the carbon source; type: cell-based, human; conditions: 10 mM glucose or 10 mM galactose
Method: Cells were treated with increasing concentrations of elesclomol in the presence of either Glucose or Galactose as the carbon source (FIG. 40A). The presence of Galactose will induce a mitochondrial dependent metabolism (FIGS. 40B-40C, Gohil et al., Nature Biotechnology 28, 249-255 (2010)).
The sensitivity of cells to different chemical isoforms of elesclomol was also assessed. […] Removing even one substantially impairs the ability of the molecule to induce toxicity (FIG. 41B).
Cell culture methods—147D, Lo19S T47D, K562 and 293T-HS cells were cultured in RPMI-1640 medium supplemented with 10% fetal bovine serum; HEK293, HEK293T and MCF-7 cells were cultured in Dulbecco's modified Eagle's medium supplemented with 10% fetal bovine serum. For the glucose, galactose experiments media lacking glucose was supplemented with dialyzed serum and either 10 mM Glucose or 10 mM galactose.
(§1) Cell viability—where indicated relative cell number following different drug treatment was conducted by plating cells at 1000 cells/well in 384 well plates. Indicated concentrations of compounds were added 24 hour after plating at least in triplicate for each condition. Viability was measured 72 hours after drug addition using cell titer-glo (Promega) according to manufactures protocol. […]

cancer cells = test: Cell viability, elesclomol and elesclomol analogs (cell titer-glo); type: cell-based; conditions: across a variety of tumor types
Description: In addition to the intrinsic sensitivity of certain cancer cells to elesclomol, as our drug screen indicated, the sensitivity of cancer cells to elesclomol can be further enhanced by forcing them into a Hi-OXPHOS state.
We examined several elesclomol analogs (FIG. 57B) to determine the structural features that are important for mediating its cytotoxicity. […] Substitution of oxygen for even one of the sulfur groups (compound-5) reduced the activity of elesclomol by 300 fold. The loss of activity was even more pronounced (>>300 fold) when both sulfurs were substituted (compound-6) (FIGS. 51C-51D, FIG. 57C). Various other modifications to the elesclomol scaffold were tolerated, as long as the core sulfur geometry remained intact.
as §1

Row | Compound | transcriptional response (HepG2 cells) | in vitro Fe-S cluster assembly with reduced FDX1 (FDX1; 5x or 10x relative to FDX1) | in vitro formation of Fe-S clusters mediated by FDX1 (FDX1; x5 concentration relative to enzyme) | sensitivity of cells in galactose (mitochondrial metabolism, Hi-OXPHOS) versus glucose (glycolytic) (MCF7 and HEK293 cells) | inhibition of cancer cell growth (cancer cells)
1 | CC(C)C[C@H](NC(=O)[C@H](Cc1ccccc1)NC(=O)c1cnccn1)B(O)O [bortezomib] | sharp increase in stress-response transcripts | – | – | – | –
2 | CN(NC(=O)CC(=O)NN(C)C(=S)c1ccccc1)C(=S)c1ccccc1 [elesclomol] | – | inhibits in vitro Fe—S cluster assembly | sufficient to induce an inhibitory effect | much more sensitive; also recorded: toxicity is enhanced | potent inhibitor of cancer cell growth
